Biological target: Complement factor D (Homo sapiens, UniProt P00746)
Test: Human Factor D Assay: Human Factor D (purified from human serum, Complement Technology, Inc.) at 80 nM final concentration is incubated with test compound at various concentrations for 5 minutes at room temperature in 50 mM Tris, 1M NaCl, pH 7.5. A synthetic substrate Z-L-Lys-SBzl and DTNB (Ellman's reagent) are added to final concentrations of 100 μM each. Absorbance at 405 nm (A405) is recorded at 30 second intervals for 30 minutes using a microplate spectrophotometer. IC50values are calculated by nonlinear regression of complement Factor D reaction rates as a function of test compound concentration.

Sequence of Complement factor D (P00746 whole entry): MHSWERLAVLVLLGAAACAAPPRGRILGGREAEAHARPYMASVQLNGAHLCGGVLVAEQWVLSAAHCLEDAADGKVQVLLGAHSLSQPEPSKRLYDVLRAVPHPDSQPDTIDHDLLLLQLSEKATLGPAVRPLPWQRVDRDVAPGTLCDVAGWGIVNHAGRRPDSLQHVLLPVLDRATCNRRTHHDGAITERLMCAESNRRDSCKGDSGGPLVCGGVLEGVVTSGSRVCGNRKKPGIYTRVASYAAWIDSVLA

| SMILES | IC50 |
| --- | --- |
| Cc1cccc(CC(O)[C@H]2C[C@@H](F)CN2C(=O)Cn2cc(C(N)=O)c3cc(C(=O)NS(=O)(=O)C4CC4)ccc32)n1 (some centres not stated) | > 10 µM |
| Cc1cccc(CC(O)[C@@H]2C[C@@H](F)CN2C(=O)Cn2cc(C(N)=O)c3cc(C(=O)NS(=O)(=O)C4CC4)ccc32)n1 (some centres not stated) | > 10 µM |

From ChEMBL document CHEMBL5729705, “Amide compounds for treatment of immune and inflammatory disorders” (2023)
